Data from patent US8653095B2, “Small molecules with antimalarial activity” (Radix Pharmaceuticals, Inc., priority 2011, dated 2014).
Read-outs that look alike come from different tables or passages of the source.

Columns and labels:
P. falciparum PH3 = assay: In vitro blood stage antimalarial efficacy, [3H]hypoxanthine uptake, strain PH3; type: cell-based; conditions: Plasmodium falciparum
Experimental: (§1) In Vitro Blood Stage Antimalarial Efficacy Evaluation. New compounds were tested against a panel of strains of P. falciparum.
(§2) Test compounds were initially dissolved in DMSO and diluted 400 fold in RPMI 1640 culture medium supplemented with 25 mM Hepes, 32 mM NaHCO3 and 10% Albumax I (Gibco, NY). These solutions were subsequently serially diluted two-fold with a Beckman Biomek® 1000 Robot (Fullerton, Calif.) over 11 different concentrations. The parasites were exposed to serial dilutions of each compound for 48 hrs and incubated at 37° C. with 5% O2, 5% CO2 and 90% N2 prior to the addition of [^3H]hypoxanthine. After a further incubation of 18 hrs, parasite DNA was harvested from each microtiter well using Packard Filtermate™ 196 Harvester (Meriden, Conn.) onto glass filters. Uptake of [^3H]hypoxanthine was measured with a Packard TopCount Liquid Scintillation Counter (Packard Instrument Co.).

P. falciparum V1S = assay: microbe, parasite or virus in culture; type: cell-based; conditions: Plasmodium falciparum
Experimental: as §1, §2

P. falciparum TM4 = assay: In vitro blood stage antimalarial efficacy, [3H]hypoxanthine uptake, strain TM4; type: cell-based; conditions: Plasmodium falciparum
Experimental: as §1, §2

P. falciparum TM6 = assay: In vitro blood stage antimalarial efficacy, [3H]hypoxanthine uptake, strain TM6; type: cell-based; conditions: Plasmodium falciparum
Experimental: as §1, §2

P. falciparum 3D7 = assay: In vitro blood stage antimalarial efficacy, [3H]hypoxanthine uptake, strain 3D7; type: cell-based; conditions: Plasmodium falciparum
Experimental: as §1, §2

P. falciparum K1 = assay: In vitro blood stage antimalarial efficacy, [3H]hypoxanthine uptake, strain K1; type: cell-based; conditions: Plasmodium falciparum
Experimental: as §1, §2

P. falciparum DD2 = assay: In vitro blood stage antimalarial efficacy, [3H]hypoxanthine uptake, strain DD2; type: cell-based; conditions: Plasmodium falciparum
Experimental: as §1, §2

rodent P. berghei = conditions: for MCureD (minimum curative dose): rodent P. berghei
Experimental: Antimalarial potency was measured by determination of the MCD (minimum clearance dose), a commonly used efficacy measurement. The primary therapeutic indices, which were obtained by using the MCDs as the effective parameters, were calculated. A secondary therapeutic indices measure of antimalarial potency was determined by use of the dose for the MCureD (minimum curative dose).

[1] = test system: Liver stage of P. yoelii yoelii; assay: In vitro liver-stage antimalarial efficacy evaluation; type: cell-based; conditions: Plasmodium yoelii
Experimental: In Vitro Liver-Stage Antimalarial Efficacy Evaluation. Any new desirable antimalarial drug should be broad spectrum: it should be active against both the blood stage and the liver stage of the parasite. New compounds were assessed on the Plasmodium yoelii liver stage in vitro. The liver stage of P. yoelii is a parasite of rodent extensively used as an experimental model for studying the initial phase of the malaria infection.

Plasmodium cynomolgi = assay: Radical curative activity in relapsed Rhesus monkeys; type: in vivo; conditions: CQ alone 10 mg/kg/day for 7 days, no drug 2
Description: Compounds with antihypnozoite activity will delay the relapse or radically cure the infection. […] Relapse was expected in the control group. Relapse in the treated group indicates failure of the test compounds. […] After standard treatment, blood smears were monitored daily for 4 consecutive days of negative results and 2 times weekly for 2 weeks.

P. berghei NK-65 = assay: In vivo efficacy in Swiss mice infected with P. berghei; conditions: Plasmodium berghei, 96 h; P. berghei NK-65, Swiss mice, oral once daily for 4 days; read-out: ED50
[2] = test system: multi-drug resistant P. falciparum Thailand T24 strain; assay: In vivo efficacy in immunocompromised BXN mice infected with P. falciparum T24; conditions: Plasmodium falciparum, 96 h, oral once daily for 4 days
Description: (§3) Antimalarial efficacy data was obtained by evaluating new compounds in two rodent models: (I) Swiss mice infected with rodent malaria strain P. berghei; (II) Immunocompromised BXN mice infected with either the sensitive P. falciparum African NF54 strain or the multi-drug resistant P. falciparum Thailand T24 strain.

[3] = test system: P. falciparum African NF54 strain; assay: In vivo efficacy in immunocompromised BXN mice infected with P. falciparum NF54; conditions: Plasmodium falciparum, 96 h, oral once daily for 4 days
Description: as §3

[4] = Sprague-Dawley, rat, in vivo, po

CCN(CC)Cc1cc(Nc2ccnc3cc(Cl)ccc23)ccc1O [Amodiaquine, reference compound]
IC50 (P. falciparum PH3; read-out: IC50): 15.9 ± 3.2 nM
IC50 (P. falciparum V1S): 8.7 ± 2.5 nM
IC50 (P. falciparum TM4; read-out: IC50): 15.2 ± 2.6 nM
IC50 (P. falciparum TM6; read-out: IC50): 7.5 ± 2.4 nM
IC50 (P. falciparum 3D7; read-out: IC50): 4.9 ± 1.8 nM
IC50 (P. falciparum K1; read-out: IC50): 21.2 ± 2.1 nM
IC50 (P. falciparum DD2; read-out: IC50): 9.1 ± 1.2 nM

C[C@H]1[C@H](OC(=O)CCC(=O)O)O[C@@H]2O[C@@]3(C)CC[C@H]4[C@H](C)CC[C@@H]1[C@@]24OO3 [Artesunate]
MTD (maximum tolerated dose) (rats, route iv): 250 mg/kg
Primary therapeutic index (rodent P. berghei; MTD divided by MCD, route iv): 37
Secondary therapeutic index (rodent P. berghei; MTD divided by MCureD, route iv): 10
MCureD (minimum curative dose) (rodent P. berghei; route iv): 25.4 mg/kg

O=C1C(O)=C([C@H]2CC[C@H](c3ccc(Cl)cc3)CC2)C(=O)c2ccccc21 [Atovaquone, reference compound]
IC50 [1]: 57 nM

CCN(CC)CCCC(C)Nc1ccnc2cc(Cl)ccc12 (stereo not shown) [Chloroquine, reference compound]
MTD (maximum tolerated dose) (rats, administered orally (intragastric), observed 2 weeks): 240 mg/kg
IC50 (P. falciparum PH3): 33.4 ± 9.1 nM
IC50 (P. falciparum V1S): 152 ± 14.1 nM
IC50 (P. falciparum TM4): 115 ± 12.7 nM
IC50 (P. falciparum TM6): 96.4 ± 6.9 nM
IC50 (P. falciparum 3D7): 9.7 ± 3.4 nM
IC50 (P. falciparum K1): 166 ± 19.3 nM
IC50 (P. falciparum DD2): 45.8 ± 10.2 nM
MCureD (minimum curative dose) (rodent P. berghei; administered orally): None
Results (radical curative test) (Plasmodium cynomolgi): relapse
Days post-treatment (relapse) (Plasmodium cynomolgi; one value per monkey): 9 days

C[C@H]1[C@@H](O)O[C@@H]2O[C@@]3(C)CC[C@H]4[C@H](C)CC[C@@H]1[C@@]24OO3 [Dihydroartemisinin, reference compound]
ED50 (P. berghei NK-65): 0.56 mg/kg
ED50 [2]: 1.2 mg/kg
ED50 [3]: 1.1 mg/kg

OC(c1cc(C(F)(F)F)nc2c(C(F)(F)F)cccc12)C1CCCCN1 (stereo not shown) [Mefloquine]
MTD (maximum tolerated dose) (Sprague-Dawley, rat, in vivo, po, 2 weeks): 600 mg/kg
Primary therapeutic index (rodent P. berghei; [4]): 60
Secondary therapeutic index (rodent P. berghei; [4]): 15
MCureD (minimum curative dose) (rodent P. berghei; administered orally): 40.5 mg/kg

COc1cc(NC(C)CCCN)c2ncccc2c1 (stereo not shown) [Primaquine, reference compound]
IC50 [1]: 76 nM
